# Source: paper PMC5467912, “Asymmetric regulation of quorum-sensing receptors drives autoinducer-specific gene expression programs in Vibrio cholerae” (PLoS Genetics, 2017)
# Where “and” joins values, the source holds several entries; their conditions need not be identical. Equal entries are not always repeated. Where two headings read alike, the source gives them in different places.
# Tests used:
# [1] = tested on: CqsS F166L; assay: CqsS-dependent repression of qrr4-gfp, CqsS F166L (Fig 7C); assay type: cell-based, Vibrio cholerae; settings: Treatment 1uM; CqsS mutant F166L
# [2] = molecular target: T1, CqsS (Vibrio cholerae serotype O1, UniProt Q9KM66); assay: cell-based; settings: for Light production: strain WN1102; for RLU: Strain WN1102
# T1 construct: endogenous in cells; host or cells: V. cholerae WN1102 (ΔcqsA ΔluxQ/pBB1), derived from C6706str2
# [3] = tested on: CqsS C170Y; assay: CqsS-dependent repression of qrr4-gfp, CqsS C170Y (Fig 7C); assay type: cell-based, Vibrio cholerae; settings: Treatment 1uM; CqsS mutant C170Y
# [4] = tested on: T2, WT CqsS; assay type: biochemical; settings: for % Total Phosphorylation: CqsS WT
# T2 construct: made in house; host or cells: E. coli C43 (DE3), pET21b; used as inverted membrane vesicles
# [5] = tested on: CqsS F162A; assay: CqsS-dependent repression of qrr4-gfp, CqsS F162A (Fig 7C); assay type: cell-based, Vibrio cholerae; settings: Treatment 1uM; CqsS mutant F162A
# [6] = tested on: T2, WT CqsS; assay type: cell-based; settings: Treatment 1uM
# [7] = tested on: T3, CqsS D618N; assay: CqsS D618N autophosphorylation in inverted membrane vesicles, 32P (Fig 7A); assay type: biochemical, Vibrio cholerae
# T3 construct: made in house; host or cells: E. coli C43 (DE3), pET21b; used as inverted membrane vesicles
# [8] = tested on: CqsS; assay type: cell-based; settings: for CqsS Dimers / Relative dimers, Final experimental replicates / Relative dimers (CqsS, normalized to WT Ave): LuxS-CqsA-, AI-2 1 μM, CAI-1 5 μM; for CqsS Dimers / Relative dimers (CqsS, normalized to WT Ave): single replicates
# [9] = tested on: QS-controlled luxCDABE operon; assay type: cell-based; settings: for RLU: Strain AH371
# [10] = tested on: QS-controlled luxCDABE operon; assay type: cell-based; settings: for RLU: PluxPQ-CqsS::3XFLAG LuxS-CqsA-
# [11] = tested on: hapA; assay type: cell-based
# [12] = tested on: qrr4; assay type: cell-based
compound,measurement,setting,value
CCn1nnnc1NCc1ccc(N2CCCC2)cc1 [#1],Qrr4-GFP/OD600,[1],1372627 and 1402431 and 1341231
same,Light production,[2]; Agonist 0.0119209 nM,14433 RLU and 16087 RLU and 17053 RLU
same,Light production,[2]; Agonist 0.0476837 nM,23351 RLU and 21676 RLU and 24048 RLU
same,Light production,[2]; Agonist 0.190735 nM,38851 RLU and 41951 RLU and 36905 RLU
same,Light production,[2]; Agonist 0.762939 nM,87702 RLU and 80982 RLU and 79024 RLU
same,Light production,[2]; Agonist 3.05176 nM,716543 RLU and 579623 RLU and 556962 RLU
same,Light production,[2]; Agonist 12.207 nM,18832900 RLU and 18957270 RLU and 17907730 RLU
same,Light production,[2]; Agonist 48.8281 nM,80742000 RLU and 84094230 RLU and 86837650 RLU
same,Light production,[2]; Agonist 195.312 nM,115208300 RLU and 122904000 RLU and 129103600 RLU
same,Light production,[2]; Agonist 781.25 nM,116783100 RLU and 133656800 RLU and 131724500 RLU
same,Light production,[2]; Agonist 3125 nM,109482900 RLU and 129285000 RLU and 130316000 RLU
same,Light production,[2]; Agonist 12500 nM,93560740 RLU and 110559800 RLU and 116375500 RLU
same,Light production,[2]; Agonist 50000 nM,59185800 RLU and 66981220 RLU and 65547470 RLU
same,fold more potent than CAI-1,[2]; EC50 comparison,~ 10 fold
same,RLU,[2]; agonist 0.0119209 nM,1.70E+04 RLU and 1.69E+04 RLU and 1.12E+04 RLU
same,RLU,[2]; agonist 0.0476837 nM,2.55E+04 RLU and 2.29E+04 RLU and 2.60E+04 RLU
same,RLU,[2]; agonist 0.190735 nM,4.47E+04 RLU and 4.12E+04 RLU and 4.19E+04 RLU
same,RLU,[2]; agonist 0.762939 nM,6.42E+04 RLU and 6.05E+04 RLU and 7.48E+04 RLU
same,RLU,[2]; agonist 3.05176 nM,2.06E+05 RLU and 2.32E+05 RLU and 3.12E+05 RLU
same,RLU,[2]; agonist 12.207 nM,1.01E+07 RLU and 9.84E+06 RLU and 1.23E+07 RLU
same,RLU,[2]; agonist 48.8281 nM,9.23E+07 RLU and 8.51E+07 RLU and 1.09E+08 RLU
same,RLU,[2]; agonist 195.312 nM,1.65E+08 RLU and 1.58E+08 RLU and 1.92E+08 RLU
same,RLU,[2]; agonist 781.25 nM,1.94E+08 RLU and 2.03E+08 RLU and 2.28E+08 RLU
same,RLU,[2]; agonist 3125 nM,2.05E+08 RLU and 2.11E+08 RLU and 2.23E+08 RLU
same,RLU,[2]; agonist 12500 nM,1.88E+08 RLU and 1.94E+08 RLU and 1.93E+08 RLU
same,RLU,[2]; agonist 50000 nM,1.33E+08 RLU and 1.29E+08 RLU
same,EC50,"[2]; light production, reporter strain WN1102, 4 h at 30 °C",4 nM
same,Qrr4-GFP/OD600,[3],18211780 and 19558860 and 23085030
same,% Total Phosphorylation,[4]; Agonist 0.1 uM,100.558% and 115.09% and 103.96% and 101.973%
same,% Total Phosphorylation,[4]; Agonist 0.5 uM,68.5791% and 92.92% and 82.55% and 69.9852%
same,% Total Phosphorylation,[4]; Agonist 1 uM,45.0881% and 63.83% and 58.45% and 44.3406%
same,% Total Phosphorylation,[4]; Agonist 2.5 uM,26.3754% and 21.56% and 17.64% and 21.3677%
same,% Total Phosphorylation,[4]; Agonist 5 uM,11.5601% and 8.94% and 7.65% and 9.2554%
same,% Total Phosphorylation,[4]; Agonist 10 uM,6.306% and 5.77% and 3.8% and 4.014%
same,% Total Phosphorylation,[4]; Agonist 20 uM,3.59% and 2.41% and 2.332%
same,% Total Phosphorylation,[4]; Agonist 30 uM,2.867% and 2.2% and 1.97% and 1.073%
same,% Total Phosphorylation,[4]; Agonist 100 uM,1.456% and 1.61% and 2.02% and 0.9371%
same,% Total Phosphorylation,[4]; Agonist 200 uM,0.8391% and 0.1631%
same,inhibition of WT CqsS autophosphorylation,[4]; saturating concentration (Fig 7B),99%
same,Qrr4-GFP/OD600,[5],15523160 and 14988240 and 15125460
same,Qrr4-GFP/OD600,[6],1321723 and 1319147 and 1356464
same,% Total Phosphorylation,[7]; agonist 0.32 uM,64.1931% and 55.8048% and 58.0668% and 77.924% and 56.4082%
same,% Total Phosphorylation,[7]; agonist 10 uM,1.9% and 2.181% and 3.3092% and 3.5805%
"C[C@]12OC[C@H](O)[C@@]1(O)O[B-](O)(O)O2 [AI-2, (2S, 4S)-2-methyl-2,3,3,4-tetrahydroxytetrahydrofuran borate]","Relative dimers, Average of 111816 reps",[8]; HCD,0.8076 and 0.9392
same,CqsS Dimers,[8]; HCD (OD600 = 2.0),120.316 and 41.5193 and 39.7812 and 190.837 and 226.59 and 73.4627 and 88.226 and 103.067
same,"Relative dimers, Final experimental replicates",[8]; HCD,0.8076 and 0.9392 and 0.977 and 1.14 and 0.4129 and 0.3956
same,"Relative dimers (CqsS, normalized to WT Ave)",[8]; HCD,0.7384 and 0.8768 and 0.8534 and 1.025 and 0.977 and 1.14 and 0.4129 and 0.3956
same,"Relative dimers, Average of 111816 reps",[8]; LCD,1.105 and 0.8147
same,CqsS Dimers,[8]; LCD (OD600 = 0.2),53.516 and 13.7214 and 12.1436 and 82.1482 and 72.8907 and 15.3978 and 28.2649 and 41.282
same,"Relative dimers, Final experimental replicates",[8]; LCD,1.105 and 0.8147 and 1.157 and 1.5 and 0.8624 and 0.7633
same,"Relative dimers (CqsS, normalized to WT Ave)",[8]; LCD,1.171 and 1.039 and 0.5746 and 1.055 and 1.157 and 1.5 and 0.8624 and 0.7633
same,CqsS protein levels,"[8]; ΔcqsA ΔluxS mutant, LCD and HCD",increased CqsS protein levels to nearly that present in the WT
same,Light production,"[9]; LuxS-CqsA- +AI-2 1 μM, OD600 0.0275",5854546 RLU
same,Light production,"[9]; LuxS-CqsA- +AI-2 1 μM, OD600 0.0589",5025467 RLU
same,Light production,"[9]; LuxS-CqsA- +AI-2 1 μM, OD600 0.2147",1280857 RLU
same,Light production,"[9]; LuxS-CqsA- +AI-2 1 μM, OD600 0.4541",1704470 RLU
same,Light production,"[9]; LuxS-CqsA- +AI-2 1 μM, OD600 1.201",1856786 RLU
same,Light production,"[9]; LuxS-CqsA- +AI-2 1 μM, OD600 1.481",34976370 RLU
same,Light production,"[9]; LuxS-CqsA- +AI-2 1 μM, OD600 1.867",25388320 RLU
same,Light production,"[9]; LuxS-CqsA- +AI-2 1 μM, OD600 3.776",12473520 RLU
same,Light production,"[9]; LuxS-CqsA-, AI-2 1 μM, CAI-1 5 μM, OD600 0.005",108432 RLU
same,RLU,[9]; agonist 0.0476837 nM,2.35E+03 RLU and 4.30E+03 RLU and 4.28E+03 RLU
same,RLU,[9]; agonist 0.762939 nM,2.47E+03 RLU and 4.79E+03 RLU and 4.30E+03 RLU
same,RLU,[9]; agonist 3.05176 nM,2.44E+03 RLU and 2.42E+03 RLU and 2.17E+03 RLU
same,RLU,[9]; agonist 12.207 nM,2.38E+03 RLU and 4.73E+03 RLU and 4.30E+03 RLU
same,RLU,[9]; agonist 48.8281 nM,9.41E+03 RLU and 7.14E+03 RLU and 8.89E+03 RLU
same,RLU,[9]; agonist 195.312 nM,2.21E+04 RLU and 3.23E+04 RLU and 2.62E+04 RLU
same,RLU,[9]; agonist 781.25 nM,6.41E+04 RLU and 4.85E+04 RLU and 5.29E+04 RLU
same,RLU,[9]; agonist 3125 nM,6.25E+04 RLU and 6.51E+04 RLU and 5.68E+04 RLU
same,RLU,[9]; agonist 12500 nM,7.03E+04 RLU and 7.29E+04 RLU and 6.20E+04 RLU
same,increase in light production,"[9]; saturating autoinducer, HCD, vs untreated ΔcqsA ΔluxS",100 fold
same,RLU,[10]; OD600 0.0532,1.35E+07 RLU
same,RLU,[10]; OD600 0.2928,9.01E+07 RLU
same,RLU,[10]; OD600 0.826,1.12E+09 RLU
same,RLU,[10]; OD600 1.094,3.16E+09 RLU
same,RLU,[10]; OD600 1.626,2.09E+10 RLU
same,RLU,[10]; OD600 2.281,2.23E+10 RLU
same,QS response when cqsS is under the luxPQ promoter,[10]; S9B Fig,caused premature induction of QS
same,increase in hapA expression,[11]; LuxQ+ AI-2- strain (ΔcqsS ΔcqsR ΔvpsS ΔluxS),27 fold
same,increase in hapA expression,"[11]; ΔcqsA ΔluxS strain, HCD",4 fold
same,RLU relative to Average WT,"[12]; LuxS-CqsA- strain + autoinducer, Average WT 115335416.84",29.34 and 29.68 and 31.98
same,"RLU, average per biological replicate (Totals)","[12]; LuxS-CqsA- strain + autoinducer, Rep 1-3",3.38E+09 RLU and 3.42E+09 RLU and 3.69E+09 RLU
same,reduction of qrr4-luxCDABE expression,"[12]; saturating autoinducer, ΔcqsA ΔluxS mutant",2 fold
